Assay results taken from patent US8501446B2 (Vertex Pharmaceuticals Incorporated, priority 2004, dated 2013).

Assays:
Format in all cases: biochemical
JAK3 = target: T1, JAK3 (Homo sapiens, UniProt P52333); assay: JAK3 inhibition assay (standard radioactive enzyme assay); conditions: average Ki if more than one value determined
T1 sequence (P52333 1-1124): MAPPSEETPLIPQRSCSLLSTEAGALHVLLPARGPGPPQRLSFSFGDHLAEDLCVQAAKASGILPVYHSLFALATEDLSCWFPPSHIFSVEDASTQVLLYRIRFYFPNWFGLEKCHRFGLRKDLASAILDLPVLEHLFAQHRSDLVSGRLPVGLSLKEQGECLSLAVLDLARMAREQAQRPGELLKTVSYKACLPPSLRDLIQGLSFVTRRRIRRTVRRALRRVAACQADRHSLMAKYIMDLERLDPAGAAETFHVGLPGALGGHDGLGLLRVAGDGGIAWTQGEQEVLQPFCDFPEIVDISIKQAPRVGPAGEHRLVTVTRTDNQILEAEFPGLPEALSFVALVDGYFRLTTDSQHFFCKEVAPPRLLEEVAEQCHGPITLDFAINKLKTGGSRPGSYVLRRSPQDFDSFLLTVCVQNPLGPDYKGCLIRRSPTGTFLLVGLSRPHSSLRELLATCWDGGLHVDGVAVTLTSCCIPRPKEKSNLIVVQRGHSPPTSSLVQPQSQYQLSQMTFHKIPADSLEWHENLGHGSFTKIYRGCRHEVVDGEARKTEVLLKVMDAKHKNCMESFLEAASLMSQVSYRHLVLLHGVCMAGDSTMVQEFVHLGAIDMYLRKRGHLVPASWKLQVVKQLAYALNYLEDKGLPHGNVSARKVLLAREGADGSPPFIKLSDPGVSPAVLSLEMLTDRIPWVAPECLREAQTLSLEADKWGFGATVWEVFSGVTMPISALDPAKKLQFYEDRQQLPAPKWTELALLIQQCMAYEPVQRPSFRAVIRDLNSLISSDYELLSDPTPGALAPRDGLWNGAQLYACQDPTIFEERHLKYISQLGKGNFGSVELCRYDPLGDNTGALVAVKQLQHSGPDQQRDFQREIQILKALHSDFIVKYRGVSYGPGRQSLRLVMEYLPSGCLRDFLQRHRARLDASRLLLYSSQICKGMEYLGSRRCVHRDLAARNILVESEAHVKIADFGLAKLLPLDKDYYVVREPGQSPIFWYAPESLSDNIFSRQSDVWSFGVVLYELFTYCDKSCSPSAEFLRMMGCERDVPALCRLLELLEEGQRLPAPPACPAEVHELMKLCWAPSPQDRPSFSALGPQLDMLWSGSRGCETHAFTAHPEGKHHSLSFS

[1] = target: T2, full length Aurora-A (AA 1-403) (Homo sapiens, UniProt O14965); assay: Aurora-A inhibition assay, standard coupled enzyme system; conditions: average Ki if more than one value determined
T2 construct: full length Aurora-A (AA 1-403)
T2 sequence (O14965 1-403): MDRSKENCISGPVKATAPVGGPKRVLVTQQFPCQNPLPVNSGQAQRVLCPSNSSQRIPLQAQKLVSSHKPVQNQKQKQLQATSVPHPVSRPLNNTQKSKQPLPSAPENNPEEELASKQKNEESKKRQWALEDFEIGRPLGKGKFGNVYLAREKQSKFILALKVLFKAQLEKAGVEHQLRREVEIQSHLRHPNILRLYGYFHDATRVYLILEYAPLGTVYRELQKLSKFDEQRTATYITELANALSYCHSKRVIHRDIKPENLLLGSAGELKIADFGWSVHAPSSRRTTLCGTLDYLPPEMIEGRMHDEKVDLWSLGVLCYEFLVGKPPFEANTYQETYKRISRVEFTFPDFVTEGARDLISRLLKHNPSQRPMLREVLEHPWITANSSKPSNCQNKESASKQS

JAK2 = JAK2 (Homo sapiens, UniProt O60674); assay: JAK2 inhibition assay (radioactive enzyme assay, as for JAK3); conditions: average Ki if more than one value determined
Sequence of JAK2 (O60674 whole entry, species assumed): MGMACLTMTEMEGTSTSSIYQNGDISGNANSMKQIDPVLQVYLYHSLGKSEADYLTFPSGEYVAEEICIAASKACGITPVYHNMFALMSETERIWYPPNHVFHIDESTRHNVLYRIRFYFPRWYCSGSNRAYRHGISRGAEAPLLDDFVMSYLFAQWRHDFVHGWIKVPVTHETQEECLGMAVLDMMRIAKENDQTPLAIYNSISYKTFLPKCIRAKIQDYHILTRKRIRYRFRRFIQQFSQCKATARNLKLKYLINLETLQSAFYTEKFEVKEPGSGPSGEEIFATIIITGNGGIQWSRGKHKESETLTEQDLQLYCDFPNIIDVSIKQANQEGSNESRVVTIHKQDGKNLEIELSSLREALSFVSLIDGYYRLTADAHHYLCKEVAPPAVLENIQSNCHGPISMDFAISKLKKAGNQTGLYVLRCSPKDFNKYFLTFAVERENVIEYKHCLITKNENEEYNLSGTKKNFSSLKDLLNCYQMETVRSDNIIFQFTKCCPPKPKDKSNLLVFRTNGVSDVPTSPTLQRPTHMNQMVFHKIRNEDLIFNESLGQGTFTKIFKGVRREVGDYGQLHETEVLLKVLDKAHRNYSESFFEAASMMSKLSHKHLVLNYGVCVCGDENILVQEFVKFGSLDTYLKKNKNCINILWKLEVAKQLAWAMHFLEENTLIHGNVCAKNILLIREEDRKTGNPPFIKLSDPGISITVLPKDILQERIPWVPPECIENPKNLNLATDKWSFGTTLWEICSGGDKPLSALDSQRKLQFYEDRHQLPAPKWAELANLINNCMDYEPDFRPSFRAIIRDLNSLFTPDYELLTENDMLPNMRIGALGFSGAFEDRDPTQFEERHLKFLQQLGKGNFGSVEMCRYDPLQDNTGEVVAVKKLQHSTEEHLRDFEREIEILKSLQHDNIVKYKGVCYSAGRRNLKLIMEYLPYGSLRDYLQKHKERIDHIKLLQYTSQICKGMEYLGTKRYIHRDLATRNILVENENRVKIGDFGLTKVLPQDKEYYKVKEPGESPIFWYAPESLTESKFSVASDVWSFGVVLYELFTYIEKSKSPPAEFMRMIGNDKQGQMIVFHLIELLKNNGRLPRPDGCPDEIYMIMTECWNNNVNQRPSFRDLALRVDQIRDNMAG
Procedure, shortened: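 Both kinases: poly(Glu)4Tyr substrate in 100 mM HEPES pH 7.4, 10 mM MgCl2, 1 mM DTT. Run 20 min at 25° C, TCA stop, filter-bound ³³P counted, Ki(app) fitted after background subtraction. JAK3: final [γ-³³P]ATP 5 μM, enzyme added as 2 nM solution. JAK2: final poly(Glu)4Tyr 15 μM, final ATP 12 μM.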

ROCK I (AA 6-553) = target: T3, ROCK I (AA 6-553) (Homo sapiens, UniProt Q13464); assay: ROCK inhibition assay, standard coupled enzyme system ("Enzyme"); conditions: enzyme-linked assay
T3 construct: ROCK I (AA 6-553)
T3 sequence (Q13464 6-553, species assumed): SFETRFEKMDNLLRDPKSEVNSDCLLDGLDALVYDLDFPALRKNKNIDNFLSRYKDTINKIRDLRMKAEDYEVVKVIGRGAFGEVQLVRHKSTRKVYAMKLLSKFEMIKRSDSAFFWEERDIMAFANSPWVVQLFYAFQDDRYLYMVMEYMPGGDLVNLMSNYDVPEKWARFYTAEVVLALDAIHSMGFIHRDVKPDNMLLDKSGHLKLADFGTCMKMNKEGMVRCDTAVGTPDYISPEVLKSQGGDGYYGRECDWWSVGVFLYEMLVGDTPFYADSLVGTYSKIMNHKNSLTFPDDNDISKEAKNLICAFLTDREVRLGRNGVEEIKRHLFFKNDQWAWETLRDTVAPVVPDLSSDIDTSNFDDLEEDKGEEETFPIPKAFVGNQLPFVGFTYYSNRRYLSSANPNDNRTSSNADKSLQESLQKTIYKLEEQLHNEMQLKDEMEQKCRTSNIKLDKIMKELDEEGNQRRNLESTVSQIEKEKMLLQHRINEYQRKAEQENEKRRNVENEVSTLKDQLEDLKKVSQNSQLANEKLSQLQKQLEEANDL
Procedure, shortened: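 ROCK I (AA 6-553) at 45 nM and 30 °C with 45 μM ATP and 200 μM peptide, in 100 mM HEPES pH 7.5, 10 mM MgCl2, 25 mM NaCl, 2 mM DTT, 1.5% DMSO. ADP output read by a PK/LDH coupled system: 2.5 mM PEP, 350 μM NADH, 30 μg/ml PK, 10 μg/ml LDH.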

Row | Ki (JAK3) [nM] | Ki [1] [nM] | Ki (JAK2) [nM] | Ki (ROCK I (AA 6-553)) [nM] | SMILES
1 | < 500 | < 500 | < 500 | 500 to 5000 | CC(C)CNc1cccc(-c2c[nH]c3ncc(Cl)cc23)n1 [Compound 99]
2 | < 500 | < 500 | < 500 | 500 to 5000 | OC[C@H](Nc1cccc(-c2c[nH]c3ncc(Cl)cc23)n1)c1ccccc1 [Compound 100]
3 | < 500 | < 500 | < 500 | 500 to 5000 | OC[C@@H](Nc1cccc(-c2c[nH]c3ncc(Cl)cc23)n1)c1ccccc1 [Compound 101]
4 | < 500 | 500 to 5000 | < 500 | 500 to 5000 | C[C@H](CO)Nc1cccc(-c2c[nH]c3ncc(Cl)cc23)n1 [Compound 102]
5 | < 500 | 500 to 5000 | < 500 | 500 to 5000 | C[C@@H](CO)Nc1cccc(-c2c[nH]c3ncc(Cl)cc23)n1 [Compound 103]
6 | 500 to 5000 | 500 to 5000 | 500 to 5000 | 500 to 5000 | CC(=O)N1[C@H](C)CN(c2ccc(-c3nnn[nH]3)c(-c3c[nH]c4ncc(Cl)cc34)n2)C[C@@H]1C [Compound 110]
7 | < 500 | 500 to 5000 | < 500 | 500 to 5000 | CC(=O)Nc1cnc2[nH]cc(-c3cccc(N4C[C@@H](C)N(C(C)=O)[C@@H](C)C4)n3)c2c1 [Compound 113]
8 | < 500 | 500 to 5000 | < 500 | 500 to 5000 | CCC(=O)Nc1cnc2[nH]cc(-c3cccc(N4C[C@@H](C)N(C(C)=O)[C@@H](C)C4)n3)c2c1 [Compound 114]
9 | < 500 | 500 to 5000 | < 500 | 500 to 5000 | CC(=O)N1[C@H](C)CN(c2cccc(-c3c[nH]c4ncc(NC(=O)C(C)C)cc34)n2)C[C@@H]1C [Compound 117]
10 | < 500 | 500 to 5000 | < 500 | 500 to 5000 | C=CC(=O)Nc1cnc2[nH]cc(-c3cccc(N4C[C@@H](C)N(C(C)=O)[C@@H](C)C4)n3)c2c1 [Compound 118]
11 | < 500 | 500 to 5000 | < 500 | 500 to 5000 | CCOC(=O)CCC(=O)Nc1cnc2[nH]cc(-c3cccc(N4C[C@@H](C)N(C(C)=O)[C@@H](C)C4)n3)c2c1 [Compound 119]
12 | < 500 | < 500 | < 500 | 500 to 5000 | CC(=O)N1[C@H](C)CN(c2nc(-c3c[nH]c4ncc(Cl)cc34)ccc2-c2nnn[nH]2)C[C@@H]1C [Compound 120]
13 | < 500 | 500 to 5000 | < 500 | 500 to 5000 | CC(=O)N1[C@H](C)CN(c2cccc(-c3c[nH]c4ncc(NC(=O)CCN5CCOCC5)cc34)n2)C[C@@H]1C [Compound 121]
14 | < 500 | 500 to 5000 | < 500 | 500 to 5000 | CN(C)c1cccc(-c2c[nH]c3ncc(Cl)cc23)n1 [Compound 122]
15 | < 500 | 500 to 5000 | < 500 | 500 to 5000 | CC(C)CN(C)c1cccc(-c2c[nH]c3ncc(Cl)cc23)n1 [Compound 123]
16 | < 500 | 500 to 5000 | < 500 | 500 to 5000 | CC(=O)N1CCCN(c2cccc(-c3c[nH]c4ncc(C(=O)NCCN5CCOCC5)cc34)n2)CC1 [Compound 124]
17 | < 500 | 500 to 5000 | < 500 | 500 to 5000 | CC(=O)N1CCCN(c2cccc(-c3c[nH]c4ncc(C(=O)NCCCN5CCN(C)CC5)cc34)n2)CC1 [Compound 125]

Row | Ki (JAK3) [nM] | Ki [1] [nM] | Ki (JAK2) [nM] | Ki (ROCK I (AA 6-553)) [nM] | SMILES
18 | < 500 | 500 to 5000 | < 500 | 500 to 5000 | CC(=O)N1[C@H](C)CN(c2cccc(-c3c[nH]c4ncc(NC(=O)CCN5CCNCC5)cc34)n2)C[C@@H]1C [Compound 128]
19 | < 500 | < 500 | < 500 | 500 to 5000 | CC(C)[C@@H](C)Nc1cccc(-c2c[nH]c3ncc(Cl)cc23)n1 [Compound 130]
20 | < 500 | < 500 | < 500 | 500 to 5000 | C[C@@H](Nc1cccc(-c2c[nH]c3ncc(Cl)cc23)n1)c1ccc(F)cc1 [Compound 131]
21 | < 500 | < 500 | < 500 | 500 to 5000 | O[C@H]1CCCC[C@@H]1Nc1cccc(-c2c[nH]c3ncc(Cl)cc23)n1 [Compound 132]
22 | < 500 | 500 to 5000 | < 500 | 500 to 5000 | CC(C)CNc1cc(C#N)cc(-c2c[nH]c3ncc(Cl)cc23)n1 [Compound 150]
23 | < 500 | < 500 | < 500 | < 500 | N#Cc1cc(-c2c[nH]c3ncc(Cl)cc23)nc(N2CCCNCC2)c1 [Compound 151]
24 | < 500 | 500 to 5000 | < 500 | 500 to 5000 | CC(=O)N1[C@H](C)CN(c2cccc(-c3c[nH]c4ncc(NC(=O)CCCN5CCNCC5)cc34)n2)C[C@@H]1C [Compound 152]
25 | < 500 | 500 to 5000 | < 500 | 500 to 5000 | CC(=O)N1[C@H](C)CN(c2cccc(-c3c[nH]c4ncc(NC(=O)CCCN5CCOCC5)cc34)n2)C[C@@H]1C [Compound 153]
26 | < 500 | 500 to 5000 | < 500 | 500 to 5000 | C=C(C)C(=O)Nc1cnc2[nH]cc(-c3cccc(N4C[C@@H](C)N(C(C)=O)[C@@H](C)C4)n3)c2c1 [Compound 154]
27 | < 500 | 500 to 5000 | < 500 | 500 to 5000 | CC(=O)N1[C@H](C)CN(c2cccc(-c3c[nH]c4ncc(NC(=O)C5=CCCCC5)cc34)n2)C[C@@H]1C [Compound 155]
28 | < 500 | 500 to 5000 | < 500 | < 500 | CC(=O)N1[C@H](C)CN(c2cccc(-c3c[nH]c4ncc(NC(=O)c5ccccc5)cc34)n2)C[C@@H]1C [Compound 156]
29 | < 500 | 500 to 5000 | < 500 | 500 to 5000 | CC(=O)N1[C@H](C)CN(c2cccc(-c3c[nH]c4ncc(NC(=O)C5=CCCC5)cc34)n2)C[C@@H]1C [Compound 157]
30 | < 500 | 500 to 5000 | < 500 | 500 to 5000 | CC(=O)N1[C@H](C)CN(c2cccc(-c3c[nH]c4ncc(NC(=O)C5CCCCC5)cc34)n2)C[C@@H]1C [Compound 158]
31 | < 500 | 500 to 5000 | < 500 | 500 to 5000 | CNc1cnc2[nH]cc(-c3cccc(N4C[C@@H](C)N(C(C)=O)[C@@H](C)C4)n3)c2c1 [Compound 159]
32 | < 500 | 500 to 5000 | < 500 | 500 to 5000 | C/C=C(\C)C(=O)Nc1cnc2[nH]cc(-c3cccc(N4C[C@@H](C)N(C(C)=O)[C@@H](C)C4)n3)c2c1 [Compound 161]
33 | < 500 | 500 to 5000 | < 500 | 500 to 5000 | CC(=O)N1[C@H](C)CN(c2cccc(-c3c[nH]c4ncc(NC(=O)c5cscn5)cc34)n2)C[C@@H]1C [Compound 162]
